The subject of the assay is P1534 leukemia ip, CD2F1 mice, survival T/C. In words: NCI In Vivo Anticancer Drug Screen. Data for tumor model P1534 Leukemia (intraperitoneal) in CD2F1 (CDF1) mice. The note with it: higher = longer survival. As for the experimental part: The antitumor activity of compounds was measured in mice bearing transplantable tumors. Survival or tumor size were measured and the results are expressed as the measurement made in the treated group (T) divided by the measurement made in the vehicle treated control group (C). The tumor model used in this assay is P1534 Leukemia (intraperitoneal) in CD2F1 (CDF1) mice

Setting [1] is: endpoint: mean survival time, dose: 4.0 mg/kg/injection, schedule: Q01DX010 (ip), vehicle: saline.
Setting [2] is: endpoint: mean survival time, dose: 8.0 mg/kg/injection, schedule: Q01DX010 (ip), vehicle: saline.
[3] abbreviates: endpoint: mean survival time, dose: 16.0 mg/kg/injection, schedule: Q01DX010 (ip), vehicle: saline.
Where [4] appears, read: endpoint: mean survival time, dose: 25.0 mg/kg/injection, schedule: Q01DX010 (ip), vehicle: saline.
[5] abbreviates: endpoint: mean survival time, dose: 50.0 mg/kg/injection, schedule: Q01DX010 (ip), vehicle: saline.
Setting [6] is: endpoint: mean survival time, dose: 100.0 mg/kg/injection, schedule: Q01DX010 (ip), vehicle: saline.
The mark [7] stands for this setting: endpoint: mean survival time, dose: 200.0 mg/kg/injection, schedule: Q01DX010 (ip), vehicle: saline.
Setting [8] is: endpoint: mean survival time, dose: 20.0 mg/kg/injection, schedule: Q01DX010 (ip), vehicle: saline.
The mark [9] stands for this setting: endpoint: mean survival time, dose: 62.5 mg/kg/injection, schedule: Q01DX010 (ip), vehicle: saline.
[10] abbreviates: endpoint: mean survival time, dose: 125.0 mg/kg/injection, schedule: Q01DX010 (ip), vehicle: saline.
The mark [11] stands for this setting: endpoint: mean survival time, dose: 250.0 mg/kg/injection, schedule: Q01DX010 (ip), vehicle: saline.
Setting [12] is: endpoint: mean survival time, dose: 7.5 mg/kg/injection, schedule: Q01DX010 (ip), vehicle: saline.
The mark [13] stands for this setting: endpoint: mean survival time, dose: 15.0 mg/kg/injection, schedule: Q01DX010 (ip), vehicle: saline.
The mark [14] stands for this setting: endpoint: mean survival time, dose: 30.0 mg/kg/injection, schedule: Q01DX010 (ip), vehicle: saline.
[15] abbreviates: endpoint: mean survival time, dose: 2.5 mg/kg/injection, schedule: Q01DX010 (ip), vehicle: saline.
[16] abbreviates: endpoint: mean survival time, dose: 10.0 mg/kg/injection, schedule: Q01DX010 (ip), vehicle: saline.
Setting [17] is: endpoint: mean survival time, dose: 12.5 mg/kg/injection, schedule: Q01DX010 (ip), vehicle: saline.
[18] abbreviates: endpoint: mean survival time, dose: 1.25 mg/kg/injection, schedule: Q01DX010 (ip), vehicle: saline.
Where [19] appears, read: endpoint: mean survival time, dose: 5.0 mg/kg/injection, schedule: Q01DX010 (ip), vehicle: saline.

Several values for one entry are separate records, joined by “and”; a condition that tells them apart may be missing. Equal entries are not always repeated. Toxic doses and inconclusive results are not listed.

`CN1CC[C@]23c4c5ccc(O)c4O[C@H]2C(=O)CC[C@H]3[C@H]1C5`: the T/C is, setting by setting: under setting [1], 100 % of control; under setting [2], 100 % of control; under setting [3], 107 % of control and 100 % of control; (endpoint: mean survival time, dose: 32.0 mg/kg/injection, schedule: Q01DX010 (ip), vehicle: saline) 103 % of control.

For the molecule `Cc1cc2nc3c(=O)[nH]c(=O)nc-3n(CC(O)C(O)C(O)C(O)CO)c2cc1C` (configuration not stated), the T/C was 111 % of control under setting [4]; 107 % of control and 100 % of control under setting [5]; 107 % of control and 111 % of control under setting [6]; 111 % of control under setting [7].

As to `SCc1ccccn1`, the T/C under setting [4] was 107 % of control, the T/C under setting [5] was 100 % of control, the T/C under setting [6] is 115 % of control and the T/C under setting [7] was 115 % of control.

Regarding `CN1CCN(CCCN2c3ccccc3Sc3ccc(C(F)(F)F)cc32)CC1`, the T/C runs as follows: under setting [8], 107 % of control; (endpoint: mean survival time, dose: 40.0 mg/kg/injection, schedule: Q01DX010 (ip), vehicle: saline) 115 % of control.

For `Nc1nc(F)nc2c1ncn2C1OC(CO)C(O)C1O` (configuration not stated), the T/C was 110 % of control and 100 % of control (endpoint: mean survival time, dose: 1.0 mg/kg/injection, schedule: Q01DX010 (ip), vehicle: saline); 103 % of control (endpoint: mean survival time, dose: 2.0 mg/kg/injection, schedule: Q01DX010 (ip), vehicle: saline); 96 % of control under setting [1]; 92 % of control under setting [2].

For `O=[n+]1c2c(n([O-])c3ccccc31)-c1cccc3cccc-2c13`, the T/C is 92 % of control and 96 % of control under setting [4]; 103 % of control and 92 % of control under setting [5]; 92 % of control and 96 % of control under setting [6]; 92 % of control under setting [7].

On to `CC(=O)Nc1ccc(/C=N/Nc2ccc([N+](=O)[O-])cn2)cc1`, for which the T/C is 100 % of control under setting [9], 100 % of control under setting [10] and 96 % of control under setting [11].

With `CC[C@@H](c1ccc(O)cc1)[C@@H](CC)c1ccc(O)cc1`, the T/C is 100 % of control (endpoint: mean survival time, dose: 25.0 mg/kg/injection, schedule: Q01DX010 (sc), vehicle: water); 92 % of control (endpoint: mean survival time, dose: 50.0 mg/kg/injection, schedule: Q01DX010 (sc), vehicle: water); 92 % of control (endpoint: mean survival time, dose: 100.0 mg/kg/injection, schedule: Q01DX010 (sc), vehicle: water); 92 % of control (endpoint: mean survival time, dose: 200.0 mg/kg/injection, schedule: Q01DX010 (sc), vehicle: water).

For the molecule `CCNc1nncs1`, the T/C is, setting by setting: under setting [2], 100 % of control; under setting [3], 96 % of control.

`CCC12CC(C(=O)OC)=C3Nc4cc(OC)ccc4C34CCN(CC3OC31)C42` (configuration not stated): the T/C (endpoint: mean survival time, dose: 3.75 mg/kg/injection, schedule: Q01DX010 (ip), vehicle: saline) is 96 % of control; the T/C under setting [12] is 100 % of control; the T/C under setting [13] was 90 % of control; the T/C under setting [14] was 96 % of control.

On to `O=C(NCCCC(NC(=O)OCc1ccccc1)C(=O)NCCCNCCCCNCCCNC(=O)C(CCCNC(=O)OCc1ccccc1)NC(=O)OCc1ccccc1)OCc1ccccc1` (configuration not stated), for which the T/C was 100 % of control under setting [15] and 100 % of control under setting [16].

With `COc1cc2c(cc1Oc1c(Oc3c(O)c(OC)cc4c3C(CC(C)C)N(C)CC4)c(OC)cc3c1C(CC(C)C)N(C)CC3)C(CC(C)C)N(C)CC2` (configuration not stated), the T/C by setting is: under setting [4], 107 % of control; under setting [5], 115 % of control; under setting [6], 111 % of control.

Turning to `COc1cc2c(c3c1c(=O)c1ccccc1n3C)C=CC(C)(C)O2`, the T/C reads like this: (endpoint: mean survival time, dose: 6.25 mg/kg/injection, schedule: Q01DX010 (ip), vehicle: other) 108 % of control; (endpoint: mean survival time, dose: 12.5 mg/kg/injection, schedule: Q01DX010 (ip), vehicle: other) 108 % of control; (endpoint: mean survival time, dose: 25.0 mg/kg/injection, schedule: Q01DX010 (ip), vehicle: other) 116 % of control; (endpoint: mean survival time, dose: 50.0 mg/kg/injection, schedule: Q01DX010 (ip), vehicle: other) 91 % of control; (endpoint: mean survival time, dose: 100.0 mg/kg/injection, schedule: Q01DX010 (ip), vehicle: other) 116 % of control.

`O=C(C[C@H]1CCC[C@H](CC(=O)c2ccccc2)N1)c1ccccc1`: the T/C is, setting by setting: under setting [17], 92 % of control; under setting [4], 107 % of control; under setting [5], 107 % of control.

On to `C1CCNCC1`, for which the T/C is, setting by setting: under setting [17], 96 % of control; under setting [4], 100 % of control; under setting [5], 100 % of control; under setting [6], 96 % of control.

Take `[N-]=[N+]=CC(=O)NCC(=O)NN`: the T/C is 103 % of control (endpoint: mean survival time, dose: 100.0 mg/kg/injection, schedule: Q01DX010 (ip), vehicle: water); 120 % of control (endpoint: mean survival time, dose: 200.0 mg/kg/injection, schedule: Q01DX010 (ip), vehicle: water); 123 % of control (endpoint: mean survival time, dose: 300.0 mg/kg/injection, schedule: Q01DX010 (ip), vehicle: water).

As to `O=C(NO)c1cccnc1`, the T/C is 113 % of control (endpoint: mean survival time, dose: 270.0 mg/kg/injection, schedule: Q01DX010 (ip), vehicle: water); 107 % of control (endpoint: mean survival time, dose: 400.0 mg/kg/injection, schedule: Q01DX010 (ip), vehicle: water); 107 % of control and 120 % of control (endpoint: mean survival time, dose: 600.0 mg/kg/injection, schedule: Q01DX010 (ip), vehicle: water).

As to `CN(C)c1ccc(C(N)=O)cn1`, the T/C reads like this: (endpoint: mean survival time, dose: 1.5 mg/kg/injection, schedule: Q01DX010 (ip), vehicle: saline) 115 % of control; (endpoint: mean survival time, dose: 3.0 mg/kg/injection, schedule: Q01DX010 (ip), vehicle: saline) 123 % of control.

Regarding `O=C(O)c1[nH]c(=O)[nH]c(=O)c1F`, the T/C under setting [18] is 106 % of control, the T/C under setting [19] is 236 % of control and the T/C under setting [16] was 106 % of control.

On to `CC(=O)N(C)C`, for which the T/C is 94 % of control and 100 % of control under setting [9]; 105 % of control and 100 % of control under setting [10]; 105 % of control and 100 % of control under setting [11]; 100 % of control (endpoint: mean survival time, dose: 500.0 mg/kg/injection, schedule: Q01DX010 (ip), vehicle: saline).

For the molecule `COc1ccc(C2NC(C(=O)O)Cc3c2[nH]c2ccccc32)cc1OC` (configuration not stated), the T/C is, setting by setting: under setting [5], 96 % of control; under setting [6], 100 % of control; under setting [7], 100 % of control; (endpoint: mean survival time, dose: 400.0 mg/kg/injection, schedule: Q01DX010 (ip), vehicle: saline) 100 % of control.

In the case of `Cc1nc(N)nc(N)c1-c1ccc(Cl)c(Cl)c1`, the T/C is, setting by setting: (endpoint: median survival time, dose: 0.75 mg/kg/injection, schedule: Q01DX009 (ip), vehicle: Klucel (hydroxypropylcellulose) (HPC)) 102 % of control; (endpoint: median survival time, dose: 1.5 mg/kg/injection, schedule: Q01DX009 (ip), vehicle: Klucel (hydroxypropylcellulose) (HPC)) 119 % of control; (endpoint: median survival time, dose: 3.0 mg/kg/injection, schedule: Q01DX009 (ip), vehicle: Klucel (hydroxypropylcellulose) (HPC)) 107 % of control.

As for `NC(N)=NCCCC(N)C(=O)NCCCCCCNC(=O)C(N)CCCN=C(N)N` (configuration not stated), the T/C is 100 % of control under setting [4], 96 % of control under setting [5], 100 % of control under setting [6] and 100 % of control under setting [7].

As to `CC[n+]1c(-c2ccccc2)c2cc(N)ccc2c2ccc(N)cc21`, the T/C is 117 % of control under setting [18], 117 % of control under setting [15] and 150 % of control under setting [16].

`COc1cc(C[C@H]2c3cc(OC)c(OC)cc3CCN2C)c(Oc2cc3c(cc2OC)-c2c(OC)c(OC)cc4c2[C@H](C3)N(C)CC4)cc1OC`: the T/C was 92 % of control under setting [4] and 92 % of control under setting [5].

For `NCCCC(=O)NCCCCCCCCCCNC(=O)CCCN`, the T/C under setting [17] is 96 % of control, the T/C under setting [4] is 93 % of control, the T/C under setting [5] was 96 % of control and the T/C under setting [6] is 103 % of control.

Regarding `CC(/C=N/N=C(N)N)=N\NC(N)=S`, the T/C under setting [5] was 100 % of control, the T/C under setting [6] was 100 % of control and the T/C under setting [7] was 100 % of control.

As to `NC(N)=NCCCC(N)C(=O)NCCCCCCNCCCCCCNC(=O)C(N)CCCN=C(N)N` (configuration not stated), the T/C is, setting by setting: under setting [19], 107 % of control; under setting [16], 96 % of control; under setting [8], 100 % of control.

As for `C/C=C1/CN[C@H]2Cc3c([nH]c4ccccc34)[C@@H](O)C[C@@H]1C2C(=O)OC` (some centres not stated), the T/C under setting [12] is 93 % of control; the T/C under setting [13] is 93 % of control; the T/C under setting [14] is 96 % of control; the T/C (endpoint: mean survival time, dose: 60.0 mg/kg/injection, schedule: Q01DX010 (ip), vehicle: saline) was 93 % of control.

The values above are taken from PubChem BioAssay AID316 (DTP/NCI, 2004).
